Test results reported in patent publication US20230130766A1 (SALK INSTITUTE FOR BIOLOGICAL STUDIES, priority 2020, published 2023).

Target: T1, ULK1 (Homo sapiens, UniProt O75385)
T1 sequence (O75385 1-1050): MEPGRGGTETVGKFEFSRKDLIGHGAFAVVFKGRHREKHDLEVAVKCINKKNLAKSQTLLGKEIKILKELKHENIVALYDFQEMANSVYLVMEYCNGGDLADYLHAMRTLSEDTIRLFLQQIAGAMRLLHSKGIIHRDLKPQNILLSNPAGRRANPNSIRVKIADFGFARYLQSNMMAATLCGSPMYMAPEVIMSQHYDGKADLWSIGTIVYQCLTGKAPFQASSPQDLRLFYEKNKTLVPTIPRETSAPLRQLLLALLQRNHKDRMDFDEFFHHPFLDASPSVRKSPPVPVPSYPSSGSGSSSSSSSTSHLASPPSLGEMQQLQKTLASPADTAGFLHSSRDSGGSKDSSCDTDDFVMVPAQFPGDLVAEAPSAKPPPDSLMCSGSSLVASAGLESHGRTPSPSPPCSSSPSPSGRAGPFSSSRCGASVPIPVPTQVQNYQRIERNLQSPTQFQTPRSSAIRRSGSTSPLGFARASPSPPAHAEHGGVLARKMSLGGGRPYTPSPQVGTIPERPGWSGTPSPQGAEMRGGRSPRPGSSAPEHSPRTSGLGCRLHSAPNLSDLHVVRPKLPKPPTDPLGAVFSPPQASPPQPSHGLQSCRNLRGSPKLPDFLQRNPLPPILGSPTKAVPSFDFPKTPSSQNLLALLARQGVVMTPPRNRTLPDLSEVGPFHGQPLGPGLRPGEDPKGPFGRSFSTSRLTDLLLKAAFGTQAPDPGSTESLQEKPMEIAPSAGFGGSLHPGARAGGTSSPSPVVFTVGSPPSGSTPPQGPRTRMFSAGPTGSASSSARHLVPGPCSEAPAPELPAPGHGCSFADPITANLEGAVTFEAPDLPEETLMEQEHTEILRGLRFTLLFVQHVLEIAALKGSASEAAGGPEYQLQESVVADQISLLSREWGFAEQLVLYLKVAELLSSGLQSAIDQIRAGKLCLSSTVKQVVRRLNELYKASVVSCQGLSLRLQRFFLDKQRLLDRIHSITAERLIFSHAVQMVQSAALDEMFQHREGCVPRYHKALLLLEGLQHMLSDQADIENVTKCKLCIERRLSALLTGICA
Experiment: ULK1 inhibition assay
Assay type: biochemical
Conditions: * = tested as a mixture of regioisomers

| SMILES | IC50 |
| --- | --- |
| CC(Cl)CNc1nc(Nc2ccc3c(c2)CCC(=O)N3)ncc1C(F)(F)F (stereo not drawn) [Compound 183b] | < 0.2 µM |
| CC(CCl)Nc1nc(Nc2ccc3c(c2)CCC(=O)N3)ncc1C(F)(F)F (stereo not drawn) [Compound 183c] | > 2 µM |
| CN(c1ccccc1)c1nc(Nc2ccc3c(c2)CCC(=O)N3)ncc1C(F)(F)F [Compound 184a] | 0.2 to 2 µM |
| CN(c1ccccc1)c1ncc(C(F)(F)F)c(Nc2ccc3c(c2)CCC(=O)N3)n1 [Compound 184b] | < 0.2 µM |
| O=C1CCc2cc(Nc3ncc(C(F)(F)F)c(Nc4ccc5[nH]ncc5c4)n3)ccc2N1 [Compound 185] | < 0.2 µM |
| COc1cc(Nc2ncc(Br)c(NC3CC3)n2)cc(OC)c1OC [Compound 186] | < 0.2 µM |
| COc1cc(Nc2ncc(C(F)(F)F)c(NC3CC3)n2)cc(OC)c1OC [Compound 187] | < 0.2 µM |
| FC(F)(F)c1cnc(Nc2ccc3nn[nH]c3c2)nc1NC1CC1 [Compound 188] | < 0.2 µM |
| Oc1ncc(C(F)(F)F)c(NC2CC2)n1 [Compound 189] | > 2 µM |
| FC(F)(F)c1cnc(Nc2ccc3c(c2)OCCCO3)nc1NC1CC1 [Compound 190] | < 0.2 µM |
| O=c1[nH]c2ncc(Nc3nc(Nc4ccc5c(c4)OCCO5)ncc3Br)cc2o1 [Compound 192] | < 0.2 µM |
| O=C1CCc2cc(Nc3ncc(C(F)(F)F)c(NC4COC4)n3)ccc2N1 [Compound 193] | > 2 µM |
| FC(F)(F)c1cnc(Nc2cnc3[nH]ccc3c2)nc1NC1COC1 [Compound 194] | < 0.2 µM |
| FC(F)(F)c1cnc(Nc2cccnc2)nc1NC1CC1 [Compound 196] | > 2 µM |
| O=C1CCc2cc(Nc3ncc(C(F)(F)F)c(NCCO)n3)ccc2N1 [Compound 197] | < 0.2 µM |
| O=C1CCc2cc(Nc3ncc(C(F)(F)F)c(NC4CNC4)n3)ccc2N1 [Compound 198a] | 0.2 to 2 µM |
| O=C1CCc2cc(Nc3ncc(C(F)(F)F)c(NC4CN(c5nc(Nc6ccc7c(c6)CCC(=O)N7)ncc5C(F)(F)F)C4)n3)ccc2N1 [Compound 198b] | > 2 µM |
| O=C1CCc2cc(Nc3nccc(NC4CC4)n3)ccc2N1 [Compound 200] | > 2 µM |
| CNC(=O)c1ccccc1Nc1nc(Nc2cnc3[nH]ccc3c2)ncc1C(F)(F)F [Compound 201] | < 0.2 µM |
| CN(c1nc(Nc2ccc3c(c2)CCC(=O)N3)ncc1C(F)(F)F)C1CC1 [Compound 202] | < 0.2 µM |
| FC(F)(F)c1cnc(Nc2cncnc2)nc1NC1CC1 [Compound 203] | < 0.2 µM |
| c1cc(NC2CC2)nc(Nc2cnc3[nH]ccc3c2)n1 [Compound 204] | > 2 µM |
| FC(F)(F)c1cnc(Nc2ccc3[nH]ccc3c2)nc1NC1CC1 [Compound 206] | < 0.2 µM |
| FC(F)(F)c1cnc(Nc2ccc3ncoc3c2)nc1NC1CC1 [Compound 208a] | < 0.2 µM |
| OC1Nc2ccc(Nc3ncc(C(F)(F)F)c(NC4CC4)n3)cc2O1 (stereo not drawn) [Compound 208b] | < 0.2 µM |

| SMILES | IC50 |
| --- | --- |
| Nc1nc(Nc2ccc3c(c2)CCC(=O)N3)ncc1C(F)(F)F [Compound 209] | 0.2 to 2 µM |
| O=C1CCc2cc(Nc3ncc(C(F)(F)F)c(N(CCO)CCO)n3)ccc2N1 [Compound 212a] | > 2 µM |
| O=C1CCc2cc(Nc3ncc(C(F)(F)F)c(OCCNCCO)n3)ccc2N1 [Compound 212b] | 0.2 to 2 µM |
| FC(F)(F)c1cnc(Nc2ccc3c(c2)OCO3)nc1NC1CC1 [Compound 213] | < 0.2 µM |
| FC(F)(F)c1cnc(Nc2ccon2)nc1NC1CC1 [Compound 214a] | 0.2 to 2 µM |
| N=c1ccon1-c1ncc(C(F)(F)F)c(NC2CC2)n1 [Compound 214b] | > 2 µM |
| O=C1CCc2cc(Nc3ncc(C(F)(F)F)c(N4CC(F)(F)C4)n3)ccc2N1 [Compound 215] | < 0.2 µM |
| O=C1CCc2cc(Nc3ncc(C(F)(F)F)c(NCC4CC4)n3)ccc2N1 [Compound 216] | < 0.2 µM |
| Nc1nc(Nc2cnc3[nH]ccc3c2)ncc1C(F)(F)F [Compound 217] | > 2 µM |
| COC(=O)CNc1nc(Nc2ccc3c(c2)CCC(=O)N3)ncc1C(F)(F)F [Compound 218] | > 2 µM |
| CCONc1nc(Nc2ccc3c(c2)CCC(=O)N3)ncc1C(F)(F)F [Compound 219] | > 2 µM |
| CC1(Nc2nc(Nc3ccc4c(c3)CCC(=O)N4)ncc2C(F)(F)F)COC1 [Compound 220a] | > 2 µM |
| CN(C)c1nc(Nc2ccc3c(c2)CCC(=O)N3)ncc1C(F)(F)F [Compound 220b] | < 0.2 µM |
| COCC(C)(CN(C)C)Nc1nc(Nc2ccc3c(c2)CCC(=O)N3)ncc1C(F)(F)F (stereo not drawn) [Compound 220c] | > 2 µM |
| FC(F)(F)c1cnc(Nc2ccnnc2)nc1NC1CC1 [Compound 221a] | < 0.2 µM |
| c1cc(NC2CC2)nc(Nc2ccc3c(c2)OCCO3)n1 [Compound 224] | > 2 µM |
| O=C1CCc2cc(Nc3ncnc(NC4CC4)n3)ccc2N1 [Compound 225] | > 2 µM |
| COC(=O)[C@@H]1CCCN1c1nc(Nc2ccc3c(c2)CCC(=O)N3)ncc1C(F)(F)F [Compound 227] | 0.2 to 2 µM |
| FC(F)(F)c1cnc(N2CCCC2c2cccnc2)nc1NC1CC1 (stereo not drawn) [Compound 228] | > 2 µM |
| O=C1CCc2cc(Nc3ncc(C(F)(F)F)c(OC4COC4)n3)ccc2N1 [Compound 231a] | < 0.2 µM |
| O=C1CCc2cc(Nc3ncc(C(F)(F)F)c(O)n3)ccc2N1 [Compound 231b] | > 2 µM |
| O=c1[nH]c2ccc(Nc3nccc(NC4CC4)n3)cc2[nH]1 [Compound 232] | > 2 µM |
| O=c1[nH]c2ccc(Nc3ncc(Br)c(Nc4ccc5[nH]c(=O)[nH]c5c4)n3)cc2[nH]1 [Compound 233] | < 0.2 µM |
| CNC(=O)c1ccccc1Oc1nc(Nc2cc(OC)c(OC)c(OC)c2)ncc1Cl [Compound 234a] | > 2 µM |
| COc1cc(Nc2ncc(Cl)c(N(C)C(=O)c3ccccc3O)n2)cc(OC)c1OC [Compound 234b] | 0.2 to 2 µM |

| SMILES | IC50 |
| --- | --- |
| O=c1[nH]c2ccc(Nc3ncc(Br)c(NC4CC4)n3)cc2[nH]1 [Compound 236] | < 0.2 µM |
| CNS(=O)(=O)c1ccccc1Nc1nc(Nc2cc(OC)c(OC)c(OC)c2)ncc1Br [Compound 237] | 0.2 to 2 µM |
| CNC(=O)c1ccccc1Oc1ccnc(Nc2cc(OC)c(OC)c(OC)c2)n1 [Compound 239] | > 2 µM |
| O=C1Cc2cc(Nc3ncc(C(F)(F)F)c(NC4CC4)n3)ccc2N1 [Compound 240] | < 0.2 µM |
| CNC(=O)c1cccc(Oc2nc(Nc3cc(OC)c(OC)c(OC)c3)ncc2Br)c1 [Compound 242] | 0.2 to 2 µM |
| COc1cc(Nc2ncc(Br)c(Oc3ccccc3C(=O)N(C)C)n2)cc(OC)c1OC [Compound 245] | < 0.2 µM |
| Oc1ccc(CCNc2ncc(C(F)(F)F)c(NC3CC3)n2)cc1 [Compound 246] | 0.2 to 2 µM |
| C[C@@H]1COCCN1c1nc(Nc2ccc3c(c2)CCC(=O)N3)ncc1C(F)(F)F [Compound 247] | < 0.2 µM |
| COc1cc(Nc2ncc(Br)c(Oc3ccccc3C(N)=O)n2)cc(OC)c1OC [Compound 249] | < 0.2 µM |
| CNC(=O)c1cccc(OC)c1Oc1nc(Nc2cc(OC)c(OC)c(OC)c2)ncc1Br [Compound 252] | < 0.2 µM |
| COc1cc(Nc2ncc(Br)c(Oc3ccccc3NC(C)=O)n2)cc(OC)c1OC [Compound 254a] | < 0.2 µM |
| COc1cc(Nc2ncc(Br)c(Oc3ccccc3N)n2)cc(OC)c1OC [Compound 254b] | < 0.2 µM |
| CNC(=O)c1c(O)cccc1Oc1nc(Nc2cc(OC)c(OC)c(OC)c2)ncc1Br [Compound 257] | < 0.2 µM |
| FC1(F)Oc2ccc(Nc3ncc(C(F)(F)F)c(NC4CC4)n3)cc2O1 [Compound 258] | > 2 µM |
| CCC(=O)c1ccccc1Oc1nc(Nc2cc(OC)c(OC)c(OC)c2)ncc1Br [Compound 260] | < 0.2 µM |
| O=C1CCc2cc(Nc3ncc(C(F)(F)F)c(OCCNC(=O)OCc4ccccc4)n3)ccc2N1 [Compound 261] | > 2 µM |
| FC(F)(F)c1cnc(NCc2cccc3ccccc23)nc1NC1CC1 [Compound 262] | > 2 µM |
| O=C1CCc2cc(Nc3nc(NC4CC4)c4ccccc4n3)ccc2N1 [Compound 263] | > 2 µM |
| FC(F)(F)c1cnc(Nc2ccc3ncccc3c2)nc1NC1CC1 [Compound 264] | < 0.2 µM |
| COc1cc(Nc2ncc(Br)c(Oc3ccccc3)n2)cc(OC)c1OC [Compound 266] | < 0.2 µM |
| CNC(=O)c1cccc(Oc2nc(Nc3ccc4c(c3)CCC(=O)N4)ncc2Br)c1 [Compound 268] | 0.2 to 2 µM |
| COc1cc(Nc2ncc(Br)c(Oc3ccccc3C(=O)NC3CC3)n2)cc(OC)c1OC [Compound 270] | 0.2 to 2 µM |
| O=C1CCc2cc(Nc3ncc(C(F)(F)F)c(Nc4cc(C5CCC5)[nH]n4)n3)ccc2N1 [Compound 271] | < 0.2 µM |
| COCc1ccccc1Oc1nc(Nc2cc(OC)c(OC)c(OC)c2)ncc1Br [Compound 274] | < 0.2 µM |
| FC(F)(F)c1cnc(Nc2cnc3ccccc3c2)nc1NC1CC1 [Compound 275] | < 0.2 µM |
